# Patent US20110009268A1, “IPBC-CONTAINING COACERVATES” (priority 2006, published 2011)
# Test system: mold fungi
# Assay: Coatings test: mold resistance of emulsion paint (formula A)
# Protocol: The substance under test was incorporated into the test paint, at the stated concentration, using a dissolver.
# The procedure for testing the emulsion paints for mold resistance was as follows:
# The coating material under test was applied to both sides of a suitable substrate. In order to obtain realistic results, one portion of the test specimens was leached with running water (24 h, 20° C.) prior to the test for mold resistance; a further portion was treated with a warm stream of fresh air (7 days, 40° C.).
# The samples thus prepared were then placed on an agar nutrient medium, and both samples and nutrient medium were contaminated with fungal spores. Inspection took place after 2-3 weeks' storage (29±1° C., 80-90% relative humidity).
# Contamination was carried out using spores of the following mold fungi which are known to destroy coating materials or which are frequently encountered on coatings:
# Alternaria tennis Aspergillus flavus Aspergillus niger Aspergillus ustus Cindosporum herbarum Paecilomyces variotii Penicillum citrium Aureobasidium pullulans Stachybotrys chartarum
compound,measurement,setting,value
"CCCCNC(=O)OCC#CI [pure IPBC, 3-iodo-2-propynyl butylcarbamate]",mold resistance of coating,"0.08% based on solids content of the emulsion paint, without leaching and wind tunnel exposure",mold-resistant
same,activity of coating against mold,"0.16% based on solids content of the emulsion paint, after leaching and wind tunnel exposure",active
